± gives the expanded uncertainty stated by the source.
Settings: Liquid, Gas chromatography

SMILES: C=CC(=C)CCC=C(C)C [2-methyl-6-methylene-2,7-octadiene]
- vapor or sublimation pressure (287.7 K): 0.1 ± 0.01 kPa
- vapor or sublimation pressure (297.15 K): 0.21 ± 0.021 kPa
- vapor or sublimation pressure (298.15 K): 0.22 ± 0.043 kPa
- vapor or sublimation pressure (313.2 K): 0.57 ± 0.13 kPa
- vapor or sublimation pressure (320.4 K): 0.87 ± 0.17 kPa
- vapor or sublimation pressure (323.2 K): 1 ± 0.21 kPa
- vapor or sublimation pressure (328.2 K): 1.3 ± 0.22 kPa
- vapor or sublimation pressure (330 K): 1.5 ± 0.23 kPa
- vapor or sublimation pressure (333.3 K): 1.8 ± 0.42 kPa
- vapor or sublimation pressure (338.2 K): 2.3 ± 0.43 kPa
- vapor or sublimation pressure (340.2 K): 2.5 ± 0.44 kPa
- vapor or sublimation pressure (343.5 K): 2.9 ± 0.45 kPa
- vapor or sublimation pressure (348.2 K): 3.7 ± 0.66 kPa
- vapor or sublimation pressure (353.2 K): 4.6 ± 0.68 kPa
- vapor or sublimation pressure (353.4 K): 4.6 ± 0.68 kPa
- vapor or sublimation pressure (355.8 K): 5.2 ± 0.7 kPa
- vapor or sublimation pressure (358.2 K): 5.7 ± 0.9 kPa
- vapor or sublimation pressure (360 K): 6.2 ± 0.91 kPa
- vapor or sublimation pressure (363.3 K): 7.1 ± 0.94 kPa
- vapor or sublimation pressure (365.8 K): 7.9 ± 0.98 kPa
- vapor or sublimation pressure (366.2 K): 8 ± 0.98 kPa
- vapor or sublimation pressure (370 K): 9.4 ± 1.2 kPa
- vapor or sublimation pressure (371.9 K): 10 ± 1.2 kPa
- vapor or sublimation pressure (379.2 K): 13 ± 1.5 kPa
- vapor or sublimation pressure (385 K): 17 ± 1.8 kPa
- vapor or sublimation pressure (390 K): 20 ± 2.1 kPa
- vapor or sublimation pressure (399.2 K): 27 ± 2.9 kPa
- vapor or sublimation pressure (410 K): 38 ± 4.3 kPa
- vapor or sublimation pressure (418.2 K): 49 ± 6.1 kPa
- vapor or sublimation pressure (421.5 K): 54 ± 5.4 kPa
- vapor or sublimation pressure (428.2 K): 65 ± 6.5 kPa
- vapor or sublimation pressure (433.5 K): 76 ± 7.6 kPa
- vapor or sublimation pressure (439.1 K): 90 ± 9 kPa
- vapor or sublimation pressure (444.7 K): 101 ± 10 kPa

SMILES: CC1(C)C2=CCCC(C)(C)[C@]23CC[C@H]1C3 [(-)-isolongifolene]
- vapor or sublimation pressure (298.15 K): 0.0043 ± 0.0026 kPa
- vapor or sublimation pressure (310 K): 0.011 ± 0.006 kPa
- vapor or sublimation pressure (320 K): 0.023 ± 0.013 kPa
- vapor or sublimation pressure (330 K): 0.046 ± 0.024 kPa
- vapor or sublimation pressure (340 K): 0.086 ± 0.042 kPa
- vapor or sublimation pressure (350 K): 0.16 ± 0.071 kPa
- vapor or sublimation pressure (360 K): 0.27 ± 0.11 kPa
- vapor or sublimation pressure (370 K): 0.46 ± 0.16 kPa
- vapor or sublimation pressure (378.2 K): 0.69 ± 0.21 kPa
- vapor or sublimation pressure (380.2 K): 0.76 ± 0.23 kPa
- vapor or sublimation pressure (386.2 K): 1 ± 0.27 kPa
- vapor or sublimation pressure (388.2 K): 1.1 ± 0.29 kPa
- vapor or sublimation pressure (392.2 K): 1.3 ± 0.31 kPa
- vapor or sublimation pressure (393.2 K): 1.4 ± 0.34 kPa
- vapor or sublimation pressure (395 K): 1.5 ± 0.34 kPa
- vapor or sublimation pressure (400 K): 1.8 ± 0.38 kPa
- vapor or sublimation pressure (410 K): 2.8 ± 0.5 kPa
- vapor or sublimation pressure (419.2 K): 4 ± 0.63 kPa
- vapor or sublimation pressure (424.2 K): 4.8 ± 0.71 kPa
- vapor or sublimation pressure (430 K): 6 ± 0.84 kPa
- vapor or sublimation pressure (440 K): 8.5 ± 1.1 kPa
- vapor or sublimation pressure (450 K): 11.8 ± 1.5 kPa
- vapor or sublimation pressure (460 K): 16 ± 1.6 kPa
- vapor or sublimation pressure (470 K): 22 ± 2.2 kPa
- vapor or sublimation pressure (480 K): 29 ± 2.9 kPa
- vapor or sublimation pressure (490 K): 38 ± 3.8 kPa
- vapor or sublimation pressure (500 K): 50 ± 5 kPa
- vapor or sublimation pressure (510 K): 63.88 ± 6.4 kPa
- vapor or sublimation pressure (520 K): 81 ± 8.1 kPa
- vapor or sublimation pressure (527 K): 95.41 ± 9.5 kPa
- vapor or sublimation pressure (528.2 K): 100 ± 10 kPa
- vapor or sublimation pressure (529.6 K): 101 ± 10 kPa

Source: the NIST ThermoML archive (doi:10.1016/j.jct.2018.12.013)
